{"source": "ChEMBL document CHEMBL1131516", "about": "“Sialyl Lewis X-polysaccharide conjugates: targeting inflammatory lesions” (Bioorg Med Chem Lett, 1998)", "molecular_target": "T1, E-selectin (Rattus norvegicus, UniProt P98105)", "T1 sequence (P98105 whole entry)": "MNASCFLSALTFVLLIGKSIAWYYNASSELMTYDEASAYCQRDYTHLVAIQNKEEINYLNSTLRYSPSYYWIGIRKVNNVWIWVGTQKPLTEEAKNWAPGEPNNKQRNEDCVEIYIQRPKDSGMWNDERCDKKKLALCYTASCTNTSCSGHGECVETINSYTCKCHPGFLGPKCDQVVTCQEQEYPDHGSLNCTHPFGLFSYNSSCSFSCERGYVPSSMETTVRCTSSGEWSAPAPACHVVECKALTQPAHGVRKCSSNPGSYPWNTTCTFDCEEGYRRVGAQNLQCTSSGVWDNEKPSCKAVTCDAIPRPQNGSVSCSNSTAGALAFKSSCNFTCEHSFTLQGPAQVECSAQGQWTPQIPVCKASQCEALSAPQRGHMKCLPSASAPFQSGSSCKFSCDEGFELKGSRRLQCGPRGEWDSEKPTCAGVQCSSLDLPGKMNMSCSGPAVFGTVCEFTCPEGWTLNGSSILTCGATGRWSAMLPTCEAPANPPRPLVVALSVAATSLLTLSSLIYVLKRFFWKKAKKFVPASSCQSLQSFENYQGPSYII", "assay": "Inhibitory concentration against Selectin E expressed at the inflammatory lesion was measured by inhibition of leukocyte rolling in the inflammatory model using IL-lbeta activated rat mesentery venules. (In vivo )", "format": "organism-based", "data": [{"smiles": "CCOCCOCCOCCOCCOCCO[C@@H]1O[C@@H](CO)[C@@H](O[C@@H]2O[C@@H](CO)[C@H](O)[C@H](O[C@]3(C(=O)O)C[C@@H](O)[C@@H](NC(C)=O)[C@H]([C@H](O)[C@H](O)CO)O3)[C@@H]2O)[C@H](O[C@@H]2O[C@@H](C)[C@@H](O)[C@H](O)[C@@H]2O)[C@@H]1NC(C)=O", "values": [{"measurement": "IC50", "value": 2630, "unit": "nM"}]}]}
